Assay results as given in patent US20070197569A1, “Method for treating central nervous system disorders with substituted 2-imidazoline derivatives” (priority 2006, published 2007).

Molecular target: T1, mouse TAAR1 (Mus musculus, UniProt Q923Y8)
T1 construct: expressed in transfected cells; host or cells: HEK293 (ATCC # CRL-1573), stably transfected with pIRESneo2 expression plasmid
Assay: Radioligand binding on membranes of HEK293 cells stably expressing TAAR1, [3H]-rac-2-(1,2,3,4-tetrahydro-1-naphthyl)-2-imidazoline
Details: for Ki: mouse TAAR1, radioligand at 60 nM, 4° C., 30 min incubation
Description: For the construction of expression plasmids the coding sequences of human, rat and mouse TAAR 1 were amplified from genomic DNA essentially as described by Lindemann et al.. The Expand High Fidelity PCR System (Roche Diagnostics) was used with 1.5 mM Mg^2+ and purified PCR products were cloned into pCR2.1-TOPO cloning vector (Invitrogen) following the instructions of the manufacturer. PCR products were subcloned into the pIRESneo2 vector (BD Clontech, Palo Alto, Calif.), and expression vectors were sequence verified before introduction in cell lines.
HEK293 cells (ATCC # CRL-1573) were cultured essentially as described Lindemann et al. (2005). For the generation of stably transfected cell lines HEK293 cells were transfected with the pIRESneo2 expression plasmids containing the TAAR coding sequences (described above) with Lipofectamine 2000 (Invitrogen) according to the instructions of the manufacturer, and 24 hrs post transfection the culture medium was supplemented with 1 mg/ml G418 (Sigma, Buchs, Switzerland). After a culture period of about 10 d clones were isolated, expanded and tested for responsiveness to trace amines (all compounds purchased from Sigma) with the cAMP Biotrak Enzyme immunoassay (EIA) System (Amersham) following the non-acetylation EIA procedure provided by the manufacturer.
Cells at confluence were rinsed with ice-cold phosphate buffered saline without Ca^2+ and Mg^2+ containing 10 mM EDTA and pelleted by centrifugation at 1000 rpm for 5 min at 4° C. The pellet was then washed twice with ice-cold phosphate buffered saline and cell pellet was frozen immediately by immersion in liquid nitrogen and stored until use at −80° C. Cell pellet was then suspended in 20 ml HEPES—NaOH (20 mM), pH 7.4 containing 10 mM EDTA, and homogenized with a Polytron (PT 3000, Kinematica) at 10,000 rpm for 10 s. The homogenate was centrifuged at 48,000×g for 30 min at 4° C. and the pellet resuspended in 20 ml HEPES—NaOH (20 mM), pH 7.4 containing 0.1 mM EDTA (buffer A), and homogenized with a Polytron at 10,000 rpm for 10 s. The homogenate was then centrifuged at 48,000×g for 30 min at 4° C. and the pellet resuspended in 20 ml buffer A, and homogenized with a Polytron at 10,000 rpm for 10 s. Protein concentration was determined by the method of Pierce (Rockford, Ill.). The homogenate was then centrifuged at 48,000×g for 10 min at 4° C., resuspended in HEPES—NaOH (20 mM), pH 7.0 including MgCl2 (10 mM) and […] homogenized with a Polytron at 10,000 rpm for 10 s.
Binding assay was performed at 4° C. in a final volume of 1 ml, and with an incubation time of 30 min. The radioligand [^3H]-rac-2-(1,2,3,4-tetrahydro-1-naphthyl)-2-imidazoline was used at a concentration equal to the calculated Kd value of 60 nM to give a bound at around 0.1% of the total added radioligand concentration, and a specific binding which represented approximately 70-80% of the total binding. Non-specific binding was defined as the amount of [^3H]-rac-2-(1,2,3,4-tetrahydro-1-naphthyl)-2-imidazoline bound in the presence of the appropriate unlabelled ligand (10 μM). Competing ligands were tested in a wide range of concentrations (10 pM-30 μM). […] Each experiment was performed in duplicate. All incubations were terminated by rapid filtration through UniFilter-96 plates (Packard Instrument Company) and glass filter GF/C, pre-soaked for at least 2 h in polyethylenimine 0.3%, and using a Filtermate 96 Cell Harvester (Packard Instrument Company). The tubes and filters were then washed 3 times with 1 ml aliquots of cold buffer B. Filters were not dried and soaked in Ultima gold (45 μl/well, Packard Instrument Company) and bound radioactivity was counted by a TopCount Microplate Scintillation Counter (Packard Instrument Company).

T1 sequence (Q923Y8 whole entry): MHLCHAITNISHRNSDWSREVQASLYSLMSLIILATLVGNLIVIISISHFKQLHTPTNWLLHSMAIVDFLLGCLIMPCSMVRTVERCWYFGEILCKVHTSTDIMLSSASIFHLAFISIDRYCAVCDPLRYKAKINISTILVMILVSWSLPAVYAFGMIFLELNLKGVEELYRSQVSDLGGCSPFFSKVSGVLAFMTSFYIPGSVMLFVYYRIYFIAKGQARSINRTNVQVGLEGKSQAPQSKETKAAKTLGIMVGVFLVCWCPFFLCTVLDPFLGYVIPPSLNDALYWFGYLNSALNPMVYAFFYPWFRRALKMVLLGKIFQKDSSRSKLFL

Compound	Ki [µM]	Kd (radioligand used in the TAAR1 binding assay, TAAR1 species not given, read-out: calculated Kd value of the radioligand) [nM]
Clc1cccc(Cl)c1SC1=NCCN1 [Example 18, 2-(2,6-Dichloro-phenylsulfanyl)-4,5-dihydro-1H-imidazole]	0.03	
c1cc2c(c(NC3=NCCN3)c1)CCCC2 [Example 15, (4,5-Dihydro-1H-imidazol-2-yl)-(5,6,7,8-tetrahydro-naphthalen-1-yl)-amine or tautomer]	0.039	
Cc1ccc(Cl)cc1N=C1NCCN1 [Example 9, (5-Chloro-2-methyl-phenyl)-imidazolidin-2-ylidene-amine or tautomer]	0.225	
O=C(CCc1ccc(NC2=NCCN2)cc1)c1ccc2ccccc2c1 [Example 11, 3-[4-(4,5-Dihydro-1H-imidazol-2-ylamino)-phenyl]-1-naphthalen-2-yl-propan-1-one ortautomer]	0.121	
Cc1cccc(C)c1N=C1NCCN1 [Example 2, (4,5-Dihydro-1H-imidazol-2-yl)-(2,6-dimethyl-phenyl)-amine or tautomer]	0.149	
Cc1cccc(C(C)C)c1NC1=NCCN1 [Example 8, (4,5-Dihydro-1H-imidazol-2-yl)-(2-isopropyl-6-methyl-phenyl)-amine or tautomer]	0.476	
CCc1cccc(CC)c1NC1=NCCN1 [Example 3, (2,6-Diethyl-phenyl)-(4,5-dihydro-1H-imidazol-2-yl)-amine or tautomer]	0.026	
Cc1csc(Cl)c1NC1=NCCN1 [Example 16, (2-Chloro-4-methyl-thiophen-3-yl)-(4,5-dihydro-1H-imidazol-2-yl)-amine or tautomer]	0.294	
c1ccc2c(N=C3NCCN3)cccc2c1 [Example 14, Imidazolidin-2-ylidene-naphthalen-1-yl-amineor tautomer]	0.036	
CCc1cccc(C)c1NC1=NCCN1 [Example 7, (4,5-Dihydro-1H-imidazol-2-yl)-(2-ethyl-6-methyl-phenyl)-amine or tautomer]	0.169	
c1ccc2c(c1)CCCC2C1=NCCN1 (racemic) [[^3H]-rac-2-(1,2,3,4-tetrahydro-1-naphthyl)-2-imidazoline, reference compound]		60
Brc1cccc(Br)c1N=C1NCCN1 [Example 6, (2,6-Dibromo-phenyl)-imidazolidin-2-ylidene-amine or tautomer]	0.501	
